Results taken from US20150307938A1, “METHOD TO IDENTIFY A NOVEL CLASS OF IMMUNOLOGIC ADJUVANTS” (Lancell, L.L.C., priority 2011, published 2015).

System: skin
Experiment: Affymetrix microarray of skin, DBP-4 hr and analogs vs. untreated; gene selection by log-2 fold change, Wilcoxon, Kendall tau (Tables 8, 9)
Type: in vivo, mouse
Conditions: for Wilcoxon: DBP-4 hr vs. untreated; for Kendall: Kendall tau, expression vs. outcome
[1] = gene #535 Tmem93 NM_001168470_at
[2] = gene #536 Nfkb2 NM_001177369_at
[3] = gene #537 Nfkb2 NM_001177370_at
[4] = gene #538 Zfp518b NM_001177902_at
[5] = gene #541 Meis1 NM_001193271_at
[6] = gene #542 Bcar1 NM_001198839_at
[7] = gene #543 Dcaf11 NM_001199009_at
[8] = gene #544 Rabgef1 NM_001199059_at
[9] = gene #545 4931408A02Rik NM_001199210_at

CCCCOC(=O)c1ccccc1C(=O)OCCCC [DBP, dibutylphthalate]
Log2 Expression Level (gene #56 of Table 8): 10.17 | Log2 Expression Level (gene #57 of Table 8): 8.92 | Log2 Expression Level (gene #58 of Table 8): 9.48 | Log2 Expression Level (gene #59 of Table 8): 8.72 | Log2 Expression Level (gene #60 of Table 8): 7.73 | Log2 Expression Level (gene #61 of Table 8): 12.15 | Log2 Expression Level (gene #62 of Table 8): 8.52 | Log2 Expression Level (gene #63 of Table 8): 11.36 | Log2 Expression Level (gene #64 of Table 8): 11.47 | Log2 Expression Level (gene #65 of Table 8): 7.88 | Log2 Expression Level (gene #66 of Table 8): 8.85 | Log2 Expression Level (gene #67 of Table 8): 5.48 | Log2 Expression Level (gene #68 of Table 8): 10.24 | Log2 Expression Level (gene #69 of Table 8): 6.54 | Log2 Expression Level (gene #70 of Table 8): 5.48 | Log2 Expression Level (gene #71 of Table 8): 8.51 | Log2 Expression Level (gene #72 of Table 8): 9.12 | Log2 Expression Level (gene #73 of Table 8): 7.67 | Log2 Expression Level (gene #74 of Table 8): 7.70 | Log2 Expression Level (gene #75 of Table 8): 9.61 | Log2 Expression Level (gene #76 of Table 8): 5.46 | Log2 Expression Level (gene #77 of Table 8): 9.71 | Log2 Expression Level (gene #78 of Table 8): 10.76 | Log2 Expression Level (gene #79 of Table 8): 8.09 | Log2 Expression Level (gene #80 of Table 8): 13.23 | Log2 Expression Level (gene #81 of Table 8): 6.69 | Log2 Expression Level (gene #82 of Table 8): 6.28 | Log2 Expression Level (gene #83 of Table 8): 7.59 | Log2 Expression Level (gene #84 of Table 8): 8.32 | Log2 Expression Level (gene #85 of Table 8): 7.84 | Log2 Expression Level (gene #86 of Table 8): 7.16 | Log2 Expression Level (gene #87 of Table 8): 9.56 | Log2 Expression Level (gene #88 of Table 8): 8.67 | Log2 Expression Level (gene #89 of Table 8): 6.04 | Log2 Expression Level (gene #90 of Table 8): 10.84 | Log2 Expression Level (gene #91 of Table 8): 8.25 | Log2 Expression Level (gene #92 of Table 8): 7.56 | Log2 Expression Level (gene #93 of Table 8): 9.98 | Log2 Expression Level (gene #94 of Table 8): 8.85 | Log2 Expression Level (gene #95 of Table 8): 7.22 | Log2 Expression Level (gene #96 of Table 8): 8.79 | Log2 Expression Level (gene #97 of Table 8): 6.04 | Log2 Expression Level (gene #98 of Table 8): 5.99 | Log2 Expression Level (gene #99 of Table 8): 10.05 | Log2 Expression Level (gene #100 of Table 8): 8.07 | Wilcoxon [1]: No | Kendall [1]: Yes | Wilcoxon [2]: No | Kendall [2]: Yes | Wilcoxon [3]: No | Kendall [3]: Yes | Wilcoxon [4]: No | Kendall [4]: Yes | Wilcoxon (gene #539 Ccm2 NM_001190343_at): No | Kendall (gene #539 Ccm2 NM_001190343_at): Yes | Wilcoxon (gene #540 Ccm2 NM_001190344_at): No | Kendall (gene #540 Ccm2 NM_001190344_at): Yes | Wilcoxon [5]: No | Kendall [5]: Yes | Wilcoxon [6]: No | Kendall [6]: Yes | Wilcoxon [7]: No | Kendall [7]: Yes | Wilcoxon [8]: No | Kendall [8]: Yes | Wilcoxon [9]: No | Kendall [9]: Yes | Wilcoxon (gene #546 Cav1 NM_007616_at): No | Kendall (gene #546 Cav1 NM_007616_at): Yes | Wilcoxon (gene #547 Cdkn2c NM_007671_at): No | Kendall (gene #547 Cdkn2c NM_007671_at): Yes | Wilcoxon (gene #548 Chd1 NM_007690_at): No | Kendall (gene #548 Chd1 NM_007690_at): Yes | Wilcoxon (gene #549 Cox8a NM_007750_at): No | Kendall (gene #549 Cox8a NM_007750_at): Yes | Wilcoxon (gene #550 Epc1 NM_007935_at): No | Kendall (gene #550 Epc1 NM_007935_at): Yes | Wilcoxon (gene #551 Mpzl2 NM_007962_at): No | Kendall (gene #551 Mpzl2 NM_007962_at): Yes | Wilcoxon (gene #552 Fnta NM_008033_at): No | Kendall (gene #552 Fnta NM_008033_at): Yes | Wilcoxon (gene #553 Gcdh NM_008097_at): No | Kendall (gene #553 Gcdh NM_008097_at): Yes | Wilcoxon (gene #554 Gcnt2 NM_008105_at): No | Kendall (gene #554 Gcnt2 NM_008105_at): Yes | Wilcoxon (gene #555 Nr3c1 NM_008173_at): No | Kendall (gene #555 Nr3c1 NM_008173_at): Yes | Wilcoxon (gene #556 Hhex NM_008245_at): No | Kendall (gene #556 Hhex NM_008245_at): Yes
